The values below come from US11965091B2, “Biocide free associative thickener” (Rohm and Haas Company, priority 2019, dated 2024).

Counter-ions that a name gives are not always drawn.

For this assay, the system named is standard pool of bacteria, yeasts, and molds. As to the kind of experiment: Microbial challenge test. It counts as cell-based. To be noted: for microbial challenge test (by acid): HEURs treated with the named acid. As to the method:
Compositions within and outside the scope of the present invention were tested for microbial growth susceptibility using a series of microbial challenge tests.
Samples were inoculated 2 times at 7-d intervals with 10^6-10^7 colony forming units per milliliter of sample (CFU/mL) of a standard pool of bacteria, yeasts, and molds obtained from American Type Culture Collection (ATCC) that are common contaminants in coatings. Once inoculated, the samples were stored in 25° C. incubators. Test samples were monitored for microbial contamination by agar plating using a standard streak plate method. Samples were plated 1 and 7 day after each microbial challenge onto trypticase soy agar (TSA) and potato dextrose agar (PDA) plates. All agar plates were checked daily up to 7 d after plating to determine the number of microorganisms surviving in the test samples. When not being checked, the agar plates were stored in incubators, 30° C. for TSA plates and 25° C. for PDA plates. The extent of microbial contamination was established by counting the colonies, where the rating score was determined from the number of microbial colonies observed on the agar plates. Reported results come from day 7 readings. Table 1 illustrates the rating system used to estimate the level of microbial contamination on streak plates. Colonies refers to the number of colonies on the plate.

With `O=S(=O)(O)O` [Example H2SO4, sulfuric acid], the “microbial challenge test (by acid)” value is “passed”.

For the compound `Cl` [HCl, hydrochloric acid], the “microbial challenge test (by acid)” value is “passed”.

In the case of `O=P(O)(O)CN(CP(=O)(O)O)CP(=O)(O)O` [NTMTPA, nitrilotris(methylene)triphosphonic acid], the “microbial challenge test (by acid)” value was “passed”.

With `O=P(O)(O)O` [phosphoric acid], the “microbial challenge test (by acid)” value is “passed”. Further, the “microbial challenge test at a pH of 2.8” value (pH of 2.8) is on record as “not optimal”. Besides, the “microbial challenge test at a pH of 3.3” value (pH of 3.3) is given as “failed”.
